What was measured:
[1] = test system: Arachidonate-Induced Bronchospasm (lipoxygenase); assay: Pulmonary Mechanics Assay: arachidonate-induced bronchospasm with indomethacin (SRS-A response, indicative of lipoxygenase inhibition); type: in vivo, male Hartley guinea pigs; conditions: Cavia porcellus, guinea pig; for inhibition in vivo at 15 mg/kg: IV dosing, read-out: Inhibition of Arachidonate-Induced Bronchospasm (IV Dosing), % Inh. with Indomethacin
Procedure: (§1) The bronchodilating activity of the compounds was tested in a pulmonary mechanics assay. Basically, male Hartley guinea pigs (about 400-500 g) were anesthetized with urethane (2 g/kg, i.p.) and placed in a whole body Plethysmograph. Cannulations of a jugular vein and carotid artery were performed for compound administration and monitoring blood pressure, respectively. The trachea was cannulated for respiration at a constate volume via a miniature starling pump. A Validyne differential pressure transducer (±20 cm H2 O) sensed transpleural pressure via a 15 gauge needle inserted into the pleural cavity and a sidearm from the tracheal cannula. Tidal volume was sensed by another Validyne differential pressure transducer (±2 cm H2 O) from pressure changes inside the plethysmograph. An on-line Buxco pulmonary mechanics computer calculated air flow, dynamic lung compliance and lung resistance. The values were recorded on a print-out.
(§2) The guinea pigs were pretreated with succinyl choline (1.2 mg/kg, i.v.) to arrest spontaneous respiration. A control challenge of arachidonic acid (0.5-1.0 mg/kg, i.v.) was administered, and the animals were then dosed with the test compound by various routes. At least 10 minutes were allowed to expire between arachidonic acid challenges. A second challenge was given and compared to the control response. This comparison was indicative of cyclooxygenase inhibition. Indomethacin (10 mg/kg, i.v.) was administered immediately after the second challenge. A third challenge of a higher dose of arachidonic acid (5-10 mg/kg, i.v.) was given. This response was induced by SRS-A and compared to the responses elicited by a separate control group of animals. Activity was indicative of lipoxygenase inhibition. Propranolol (0.005 mg/kg. i.v.) may be given prior to the third challenge to enhance the response to SRS-A.
(§3) Bronchoconstriction induced by arachidonic acid with or without indomethacin was expressed as maximum percent change in dynamic lung compliance (Cdyn) and maximum percent increase in lung resistance (RL). Each guinea pig served as its own control for cyclooxygenase evaluation. The results are shown in Table I and are expressed as the percent inhibition of control.

[2] = test system: Arachidonate-Induced Ear Edema; assay: Arachidonic Acid-Induced Ear Edema Assay; type: in vivo; conditions: topical, mouse ear; for inhibition in vivo at 0.4 mg: 400 μg topically; for inhibition in vivo at 0.4 mg / inhibition in vivo at 0.2 mg / inhibition in vivo at 0.1 mg: read-out: Inhibition of Arachidonate-Induced Ear Edema, % Inh. (μg topically); for inhibition in vivo at 0.2 mg: 200 μg topically; for inhibition in vivo at 0.1 mg: 100 μg topically
Procedure: The topical anti-inflammatory activity of a compound was determined by its ability to inhibit an experimentally-induced inflammation in the mouse ear. Basically, four milligrams of arachidonic acid in acetone were applied to the dorsal surface of one ear with a microliter pipette. The mice were sacrificed at various times after application of arachidonic acid (one-half to six hours). A section of each ear was removed with a 7 mm round punch and weighed on an electronic or analytical balance. The difference in weight between treated and untreated ears was determined. Compounds to be evaluated for anti-inflammatory activity can be incorporated directly into the irritant mixture or at various times prior to or after application of arachidonic acid.
The degree of anti-inflammatory activity is shown in Table I, and is expressed in terms of the percent inhibition of ear weight increase.

5-lipoxygenase = molecular target: T1, 5-lipoxygenase (Rattus norvegicus, UniProt P12527); assay: Inhibition of 5-lipoxygenase in cell-free homogenate of rat basophilic leukemia (RBL-1) cells; type: biochemical; conditions: RBL-1 cell-free homogenate; for inhibition at 3 µM: read-out: Inhibition of 5-Lipoxygenase, % Inh. @ 3 μM
T1 construct: The cell-free homogenate was prepared by sonication of the cells followed by centrifugation at 40,000 xg; endogenous in cells; host or cells: RBL-1 (rat basophilic leukemia) cells, 40,000 xg supernatant of the sonicate
T1 sequence (P12527 1-673): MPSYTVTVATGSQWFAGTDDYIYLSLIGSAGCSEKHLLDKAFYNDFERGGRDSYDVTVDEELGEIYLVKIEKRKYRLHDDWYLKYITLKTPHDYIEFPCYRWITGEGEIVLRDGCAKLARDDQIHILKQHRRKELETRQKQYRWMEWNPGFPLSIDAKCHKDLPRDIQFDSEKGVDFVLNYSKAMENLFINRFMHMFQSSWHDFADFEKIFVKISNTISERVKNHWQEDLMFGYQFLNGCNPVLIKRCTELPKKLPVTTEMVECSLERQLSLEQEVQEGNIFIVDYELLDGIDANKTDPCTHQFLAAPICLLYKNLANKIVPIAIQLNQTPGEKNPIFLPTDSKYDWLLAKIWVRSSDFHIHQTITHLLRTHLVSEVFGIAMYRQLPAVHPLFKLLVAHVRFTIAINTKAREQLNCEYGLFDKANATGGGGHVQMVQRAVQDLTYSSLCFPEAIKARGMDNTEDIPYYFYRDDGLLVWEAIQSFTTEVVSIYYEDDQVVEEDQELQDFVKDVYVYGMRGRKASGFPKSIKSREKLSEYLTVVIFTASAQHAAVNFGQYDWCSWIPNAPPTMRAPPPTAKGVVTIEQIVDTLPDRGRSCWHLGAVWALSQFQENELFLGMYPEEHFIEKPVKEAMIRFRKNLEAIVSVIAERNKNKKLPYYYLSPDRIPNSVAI
Procedure: The inhibition of 5-lipoxygenase was tested in a cell-free homogenate by the procedure of B. Jakschik et al., Biochem.Biophys.Res.Comm. 95, 103 (1980). Basically, rat basophilic leukemia cells (RBL-1 cells) were maintained in culture in a suitable medium, and were collected by centrifugation prior to assay. The cell-free homogenate was prepared by sonication of the cells followed by centrifugation at 40,000 xg. The CaCl2 dependent production of lipoxygenase products from ^14 C-arachidonic acid in the 40,000 xg supernatant was monitored in the presence of buffer (or other vehicle) or drug. Products were isolated by acidification and extraction, followed by thin layer chromatography. Radioactive areas corresponding to the authentic lipoxygenase products were quantitated by liquid scintillation counting. Data was reported as the IC50, the concentration causing 50% inhibition of the generation of lipoxygenase products. The results are shown it Table I as the percent inhibition at 3 μM or the amount of compound necessary to cause 50% inhibition.

[3] = test system: Arachidonate-Induced Bronchospasm (cyclooxygenase); assay: Pulmonary Mechanics Assay: arachidonate-induced bronchospasm without indomethacin (indicative of cyclooxygenase inhibition); type: in vivo, male Hartley guinea pigs; conditions: Cavia porcellus, guinea pig; for inhibition in vivo at 15 mg/kg: IV dosing, read-out: Inhibition of Arachidonate-Induced Bronchospasm (IV Dosing), % Inh. without Indomethacin
Procedure: as §1, §2, §3

[4] = ID dosing, read-out: Inhibition of Arachidonate-Induced Bronchospasm (ID Dosing), % Inh. with Indomethacin
[5] = ID dosing, read-out: Inhibition of Arachidonate-Induced Bronchospasm (ID Dosing), % Inh. without Indomethacin

Row | inhibition at 3 µM (5-lipoxygenase) | IC50 (5-lipoxygenase) | SMILES | inhibition in vivo at 15 mg/kg [1] | inhibition in vivo at 0.4 mg [2] | inhibition in vivo at 15 mg/kg [3] | Inhibition of Arachidonate-Induced Ear Edema, ED50 [2] | inhibition in vivo at 0.2 mg [2] | other results
1 | 100% |  | CCCCCCCCCCN(O)C(=O)N(CC)CC [Example 1, N,N-Diethyl-N'-decyl-hydroxyurea] | 38% | 52% | 54% |  |  | 
2 |  | 90 nM | CCCCCCCCCCN(O)C(=O)NC [Example 2, N-Methyl-N'-decyl-N'-hydroxyurea] | 44% | 82% | 32% | 29 µg |  | 
3 | 100% |  | CCCCCCCCCCN(O)C(=O)NCCC(=O)OC [Example 4, N-[2-(Methoxycarbonyl)ethyl]-N'-decyl-N'-hydroxyurea] | < 20% | 65% | -39% |  |  | 
4 | 100% |  | CCCCCCCCCCN(O)C(=O)NCCCC(=O)OC [Example 5, N-[3-(Methoxycarbonyl)propyl]-N'-decyl-N'-hydroxyurea] | 37% | 49% | < 20% |  |  | 
5 | 100% |  | CCCCCCCCCCN(O)C(=O)NCCCCCCC(=O)OC [Example 6, N-[6-(Methoxycarbonyl)hexyl]-N'-decyl-N'-hydroxyurea] | < 20% | 30% | -45% |  |  | 
6 | 77% | 1800 nM | CCCCCCCCN(O)C(=O)N(C)C [Example 7, N,N-Dimethyl-N'-octyl-N'-hydroxyurea] | 41% |  | 61% | 49 µg |  | 
7 |  | 100 nM | CCCCCCCCCCN(O)C(=O)N(C)C [Example 11, N,N-Dimethyl-N'-decyl-N'-hydroxyurea] | 98% | 90% | 95% | 43 µg |  | inhibition in vivo at 50 mg/kg [1, 4]: -46%; inhibition in vivo at 50 mg/kg [3, 5]: 36%
8 | 100% |  | CCCCCCCCCCCN(O)C(=O)N(C)C [Example 12, N,N-Dimethyl-N'-undecyl-N'-hydroxyurea] |  |  |  | 65 µg | 94% | inhibition in vivo at 50 mg/kg [1, 4]: 40%; inhibition in vivo at 50 mg/kg [3, 5]: -9%
9 | 95% |  | CCCCCCCCCCCCN(O)C(=O)N(C)C [Example 13, N,N-Dimethyl-N.-dodecyl-N'-hydroxyurea] | 66% |  | 57% |  | 90% | 
10 | 95% |  | CCCCCCCCCCCCCN(O)C(=O)N(C)C [Example 14, N,N-Dimethyl-N'-tridecyl-N'-hydroxyurea] |  |  |  | 156 µg | 95% | inhibition in vivo at 50 mg/kg [1, 4]: 49%; inhibition in vivo at 50 mg/kg [3, 5]: -128%
11 | 100% |  | CCCCCCCCCCCCCCN(O)C(=O)N(C)C [Example 15, N,N-Dimethyl-N'-tetradecyl-N'-hydroxyurea] |  |  |  |  | 26% | inhibition in vivo at 50 mg/kg [1, 4]: 46%; inhibition in vivo at 50 mg/kg [3, 5]: -26%
12 |  | 210 nM | CCCCCCCCCCNC(=O)N(C)O [Example 16, N-Decyl-N'-methyl-N'-hydroxyurea] | 58% | 73% | 55% | 28 µg |  | inhibition in vivo at 100 mg/kg ([1]; ID dosing, 100 mg/kg, read-out: Inhibition of Arachidonate-Induced Bronchospasm (ID Dosing), % Inh. with Indomethacin): 35%; inhibition in vivo at 100 mg/kg ([3]; ID dosing, 100 mg/kg, read-out: Inhibition of Arachidonate-Induced Bronchospasm (ID Dosing), % Inh. without Indomethacin): < 20%
13 |  | 160 nM | CCCCCCCCCCN(C)C(=O)N(C)O [Example 17, N-Decyl-N,N'-dimethyl-N'-hydroxyurea] | 79% | 88% | 41% | 24 µg |  | 
14 | 96% | 280 nM | CCCCCCCCCCC1CN(O)C(=O)N1C (centres unmarked) [Example 28, 4-Decyl-1-hydroxy-3-methylimidazolidin-2-one] |  | 85% |  | 134 µg |  | 
15 | 39% |  | CN(O)C(=O)NCCc1ccc(-c2ccccc2)cc1 [Example 31] |  |  |  |  | 40% | 
16 | 100% |  | CN(O)C(=O)NCCCCCCCOCc1ccccc1 [Example 39, N-[7-(Benzyloxy)heptyl]-N'hydroxy-N'-methylurea] |  |  |  | 31 µg | 70% | 
17 | 3% |  | COc1ccc(CC(C)(C)NC(=O)N(C)O)cc1OC [Example 56, N-[2-(3,4-Dimethoxyphenyl)-1,1-dimethylethyl]-N'hydroxy-N'-methylurea] |  |  |  |  |  | inhibition in vivo at 0.1 mg [2]: 38%
18 | 0% |  | COc1cc2c(cc1OC)CCN(C(=O)N(C)O)CC2 [Example 62, 7,8-Dimethoxy-N-hydroxy-N-methyl-1,2,4,5-tetrahydro-3H-3-benzazepine-3-carboxamide] |  |  |  |  | 35% | 
19 | 41% |  | COc1ccc(CCNC(=O)N(C)O)cc1OCc1ccccc1 [Example 69, N-[2-(3-Benzyloxy-4-methoxyphenyl)ethyl]-N'-hydroxy-N'-methylurea] |  |  |  |  | 38% | 

Row | SMILES | inhibition at 3 µM (5-lipoxygenase) | IC50 (5-lipoxygenase) | inhibition in vivo at 15 mg/kg [1] | inhibition in vivo at 0.4 mg [2] | inhibition in vivo at 15 mg/kg [3] | Inhibition of Arachidonate-Induced Ear Edema, ED50 [2] | inhibition in vivo at 0.2 mg [2] | other results
20 | COc1ccc(CCNC(=O)N(OC(C)=O)C(C)(C)C)cc1OC [Example 52, N-[2-(3,4-Dimethoxyphenyl)ethyl]-N'-acetoxy-N'-t-butylurea] | 9% |  |  |  |  |  |  | inhibition in vivo at 0.1 mg [2]: 69%

From US5066658A, “Substituted hydroxyureas” (Ortho Pharmaceutical Corporation, priority 1990, dated 1991)
